How the values were obtained:
Experiment in all cases: Competitive isoTOP-ABPP in situ (fragment-treated cells)
Assay type in all cases: cell-based
[1] = biological target: T1, cysteines in MDA-MB-231 and Ramos cells (Homo sapiens, UniProt O75521)
T1 sequence (O75521 39-394): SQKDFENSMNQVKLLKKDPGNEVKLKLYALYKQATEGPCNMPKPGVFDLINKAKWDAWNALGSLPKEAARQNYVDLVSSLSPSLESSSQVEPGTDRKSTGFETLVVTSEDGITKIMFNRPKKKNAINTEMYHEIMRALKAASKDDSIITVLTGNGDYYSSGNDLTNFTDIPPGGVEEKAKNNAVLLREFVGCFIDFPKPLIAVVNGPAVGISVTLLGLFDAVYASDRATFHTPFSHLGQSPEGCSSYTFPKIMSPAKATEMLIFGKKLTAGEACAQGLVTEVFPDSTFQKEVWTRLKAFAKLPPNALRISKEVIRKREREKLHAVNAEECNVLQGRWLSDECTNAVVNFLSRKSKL

[2] = biological target: T2, cysteines in MDA-MB-231 and Ramos cells (Homo sapiens, UniProt P42765); conditions: 200 μM, insitu
T2 sequence (P42765 1-397): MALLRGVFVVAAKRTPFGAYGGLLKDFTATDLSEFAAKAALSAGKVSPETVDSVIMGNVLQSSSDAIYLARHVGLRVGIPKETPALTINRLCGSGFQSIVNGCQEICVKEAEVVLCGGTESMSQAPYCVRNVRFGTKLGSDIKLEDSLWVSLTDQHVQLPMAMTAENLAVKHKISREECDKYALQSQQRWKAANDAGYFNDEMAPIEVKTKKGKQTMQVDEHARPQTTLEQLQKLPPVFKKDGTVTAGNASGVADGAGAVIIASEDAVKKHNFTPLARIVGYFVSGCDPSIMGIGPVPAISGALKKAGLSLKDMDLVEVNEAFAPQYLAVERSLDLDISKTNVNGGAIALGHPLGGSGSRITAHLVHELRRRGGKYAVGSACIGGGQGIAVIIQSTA

[3] = biological target: T3, cysteines in MDA-MB-231 and Ramos cells (Homo sapiens, UniProt Q5T0N5)
T3 sequence (Q5T0N5 1-605): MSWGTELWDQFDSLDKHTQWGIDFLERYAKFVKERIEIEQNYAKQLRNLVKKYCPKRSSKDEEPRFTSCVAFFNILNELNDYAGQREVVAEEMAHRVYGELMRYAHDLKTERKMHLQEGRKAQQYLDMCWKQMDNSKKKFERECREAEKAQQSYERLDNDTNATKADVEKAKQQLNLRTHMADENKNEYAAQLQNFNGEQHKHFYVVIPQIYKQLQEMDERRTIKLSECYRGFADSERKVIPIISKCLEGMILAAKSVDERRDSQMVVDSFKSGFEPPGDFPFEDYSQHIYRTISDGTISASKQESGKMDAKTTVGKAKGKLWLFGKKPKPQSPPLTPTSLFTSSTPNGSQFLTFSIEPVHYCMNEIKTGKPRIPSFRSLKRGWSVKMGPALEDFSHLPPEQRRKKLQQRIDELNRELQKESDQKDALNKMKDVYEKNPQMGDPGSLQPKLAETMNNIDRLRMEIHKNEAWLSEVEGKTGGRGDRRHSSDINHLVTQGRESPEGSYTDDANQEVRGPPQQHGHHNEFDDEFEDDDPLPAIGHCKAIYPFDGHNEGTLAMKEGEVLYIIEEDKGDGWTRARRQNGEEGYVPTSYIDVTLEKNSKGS

[4] = biological target: T4, cysteines in MDA-MB-231 and Ramos cells (Homo sapiens, UniProt Q99757)
T4 sequence (Q99757 60-166): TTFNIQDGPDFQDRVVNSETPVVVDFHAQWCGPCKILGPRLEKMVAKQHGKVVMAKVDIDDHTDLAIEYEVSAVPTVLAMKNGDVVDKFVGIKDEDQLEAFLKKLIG

[5] = biological target: T5, cysteines in MDA-MB-231 and Ramos cells (Homo sapiens, UniProt Q9NQR4)
T5 sequence (Q9NQR4 1-276): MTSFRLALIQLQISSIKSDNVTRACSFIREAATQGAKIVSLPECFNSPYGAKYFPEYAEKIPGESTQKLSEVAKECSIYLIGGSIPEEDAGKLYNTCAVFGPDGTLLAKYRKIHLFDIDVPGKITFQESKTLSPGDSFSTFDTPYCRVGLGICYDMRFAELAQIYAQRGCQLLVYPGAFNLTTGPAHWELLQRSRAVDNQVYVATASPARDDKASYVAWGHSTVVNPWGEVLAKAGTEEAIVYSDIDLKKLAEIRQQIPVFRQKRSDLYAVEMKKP

[6] = biological target: T6, cysteines in MDA-MB-231 and Ramos cells (Homo sapiens, UniProt P11216)
T6 sequence (P11216 1-843): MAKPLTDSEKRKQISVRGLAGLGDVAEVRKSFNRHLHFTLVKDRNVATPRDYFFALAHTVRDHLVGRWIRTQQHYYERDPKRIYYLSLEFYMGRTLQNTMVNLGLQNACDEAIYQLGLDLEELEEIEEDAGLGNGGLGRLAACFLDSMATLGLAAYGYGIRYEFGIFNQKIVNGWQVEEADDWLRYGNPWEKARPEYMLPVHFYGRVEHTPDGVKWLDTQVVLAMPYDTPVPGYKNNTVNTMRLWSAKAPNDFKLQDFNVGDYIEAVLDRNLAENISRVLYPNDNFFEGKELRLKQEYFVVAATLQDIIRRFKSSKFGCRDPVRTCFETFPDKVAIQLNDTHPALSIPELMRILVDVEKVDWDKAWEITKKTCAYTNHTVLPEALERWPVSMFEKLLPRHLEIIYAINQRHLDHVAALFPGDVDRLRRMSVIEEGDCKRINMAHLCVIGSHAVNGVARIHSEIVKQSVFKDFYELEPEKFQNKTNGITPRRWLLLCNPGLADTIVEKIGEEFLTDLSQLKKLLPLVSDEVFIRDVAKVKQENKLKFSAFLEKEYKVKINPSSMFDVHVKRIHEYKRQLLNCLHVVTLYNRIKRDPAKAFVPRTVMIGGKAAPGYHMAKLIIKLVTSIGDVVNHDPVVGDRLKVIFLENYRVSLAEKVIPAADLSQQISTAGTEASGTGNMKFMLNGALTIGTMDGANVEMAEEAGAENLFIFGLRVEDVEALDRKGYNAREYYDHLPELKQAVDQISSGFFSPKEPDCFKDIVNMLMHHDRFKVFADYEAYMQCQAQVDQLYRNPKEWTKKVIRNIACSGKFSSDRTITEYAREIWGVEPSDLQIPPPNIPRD

isoTOP-ABPP ratio O75521_C312 ([1]; 200 μM, insitu, 231) | isoTOP-ABPP ratio O75521_C380 ([1]; 200 μM, insitu, 231) | isoTOP-ABPP ratio P11216_C326 ([6]; 200 μM, insitu, 231) | isoTOP-ABPP ratio P42765_C92 [2]; 231 | isoTOP-ABPP ratio Q5T0N5_C69 ([3]; 200 μM, insitu, 231) | isoTOP-ABPP ratio Q99757_C90 ([4]; 200 μM, insitu, 231) | isoTOP-ABPP ratio Q9NQR4_C153 ([5]; 200 μM, insitu, 231) | SMILES | other results
– | – | – | – | – | – | – | COc1ccc2c(c1)CCCN2C(=O)CCl [compound 2] | isoTOP-ABPP reactivity O75521_C312 ECI2 ([1]; 200 μM, insitu, 231): 0.7; isoTOP-ABPP reactivity O75521_C380 ECI2 ([1]; 200 μM, insitu, 231): 0.6; isoTOP-ABPP reactivity P42765_C92 ACAA2 [2]; 231: 20.0; isoTOP-ABPP reactivity Q5T0N5_C69 FNBP1L ([3]; 200 μM, insitu, 231): 20.0; isoTOP-ABPP reactivity Q99757_C90 TXN2 ([4]; 200 μM, insitu, 231): 10.1; isoTOP-ABPP reactivity Q9NQR4_C153 N1T2 ([5]; 200 μM, insitu, 231): 13.1
1.1 | 1.6 | 0.7 | 1.2 | 0.6 | 6.3 | 1.3 | CC(C)CCOCCNC(=O)CCl [compound 27] | –
4.2 | 1.9 | 3.9 | 20.0 | 20.0 | 5.0 | 0.9 | O=C(CCl)NC(=O)NC12CC3CC(CC(C3)C1)C2 [compound 12] | –
1.6 | 1.8 | 0.9 | 1.3 | 0.8 | 4.3 | 0.9 | O=C(CCl)NC12CC3CC(CC(C3)C1)C2 [compound 21] | –
5.0 | 4.8 | 8.6 | 3.7 | 2.0 | – | 20.0 | O=C(CCl)N1CCN(S(=O)(=O)c2ccccc2F)CC1 [compound 10] | isoTOP-ABPP ratio P42765_C92 ([2]; ramos): 1.1
– | 1.1 | 0.7 | 1.1 | 0.6 | 0.5 | 0.7 | Cc1ccc(C=C(C#N)C(=O)NCCN2CCOCC2)cc1 [compound 41] | –
– | – | – | – | – | – | – | Cn1cc(S(=O)(=O)N2CCOCC2)cc1C(=O)NC(=O)CCl [compound 11] | isoTOP-ABPP ratio O75521_C380 ([1]; 100 μM in situ 231): 0.8; isoTOP-ABPP ratio P11216_C326 ([6]; 100 μM in situ 231): 0.8; isoTOP-ABPP ratio Q5T0N5_C69 ([3]; 100 μM in situ 231): 1.3; isoTOP-ABPP ratio Q99757_C90 ([4]; 100 μM in situ 231): 2.7; isoTOP-ABPP ratio Q9NQR4_C153 ([5]; 100 μM in situ 231): 3.7
– | 0.8 | – | – | – | – | – | COc1ccccc1OCCNC(=O)CCl [compound 28] | –

Reference: patent US10670605B2, “Cysteine reactive probes and uses thereof” (The Scripps Research Institute, priority 2015, dated 2020)
